Converted amounts (≈) assume the structure as drawn.
How the values were obtained:
Type in all cases: functional
Staphylococcus aureus [1] = test: Antimicrobial activity against methicillin-resistant Staphylococcus aureus ATCC 33591; conditions: read-out: MIC100
Staphylococcus aureus [2] = test: Antimicrobial activity against methicillin-resistant Staphylococcus aureus UAMS 1182; conditions: read-out: MIC100
Staphylococcus aureus [3] = test: Antimicrobial activity against methicillin-resistant Staphylococcus aureus Sanger 252; conditions: Sanger 252, read-out: MIC100

Compound | MIC (Staphylococcus aureus [1]) | MIC (Staphylococcus aureus [2]) | MIC (Staphylococcus aureus [3])
CC(C)C[C@H]1NC(=O)[C@@H](NC(=O)c2ncccc2O)[C@@H](C)OC(=O)[C@H](c2ccccc2)N(C)C(=O)[C@H](CO)NC(=O)[C@H](C(C)C(C)C)N(C)C(=O)CN(C)C(=O)[C@H]2C[C@@H](O)CN2C1=O (stereo not given in full) [FIJIMYCIN C] | 32 µg/mL (≈ 35.8 µM) | 8 µg/mL (≈ 8.94 µM) | –
CC(C)C[C@H]1NC(=O)[C@@H](NC(=O)c2ncccc2O)[C@@H](C)OC(=O)[C@H](c2ccccc2)N(C)C(=O)[C@H](C)NC(=O)[C@H](C(C)C(C)C)N(C)C(=O)CN(C)C(=O)[C@H]2C[C@@H](O)CN2C1=O (stereo not given in full) [VIRIFOGRISEIN I] | 16 µg/mL (≈ 18.2 µM) | 4 µg/mL (≈ 4.55 µM) | 16 µg/mL (≈ 18.2 µM)
CC(C)C[C@H]1NC(=O)[C@@H](NC(=O)c2ncccc2O)[C@@H](C)OC(=O)[C@H](CC(C)C)N(C)C(=O)[C@H](C)NC(=O)[C@H](C(C)C(C)C)N(C)C(=O)CN(C)C(=O)[C@H]2C[C@@H](O)CN2C1=O (stereo not given in full) [FIJIMYCIN B] | > 32 µg/mL | > 32 µg/mL | –
CC(C)C[C@H]1NC(=O)[C@@H](NC(=O)c2ncccc2O)[C@@H](C)OC(=O)[C@@H](c2ccccc2)N(C)C(=O)[C@H](C)NC(=O)[C@H](C(C)C(C)C)N(C)C(=O)CN(C)C(=O)[C@H]2C[C@@H](O)CN2C1=O (stereo not given in full) [FIJIMYCIN A] | 16 µg/mL (≈ 18.2 µM) | 4 µg/mL (≈ 4.55 µM) | 32 µg/mL (≈ 36.4 µM)

Source: ChEMBL document CHEMBL1914315, “Fijimycins A-C, three antibacterial etamycin-class depsipeptides from a marine-derived Streptomyces sp” (2011)
